# In ChEMBL document CHEMBL3352180, “From chemical tools to clinical medicines: nonimmunosuppressive cyclophilin inhibitors derived from the cyclosporin and sanglifehrin scaffolds” (J Med Chem, 2014):
# Key:
# Hepatitis C virus [1] = assay: Antiviral activity against HCV assessed as inhibition of viral replication at 1 uM by replicon based assay; assay type: functional, Hepacivirus hominis
# Lymphocyte = assay: cells
# Description: Immunosuppressive activity in lymphocytes (unknown origin) by mixed lymphocyte reaction assay
# [2] = target: Peptidyl-prolyl cis-trans isomerase F, mitochondrial (Homo sapiens, UniProt P30405)
# Sequence of Peptidyl-prolyl cis-trans isomerase F, mitochondrial (P30405 whole entry): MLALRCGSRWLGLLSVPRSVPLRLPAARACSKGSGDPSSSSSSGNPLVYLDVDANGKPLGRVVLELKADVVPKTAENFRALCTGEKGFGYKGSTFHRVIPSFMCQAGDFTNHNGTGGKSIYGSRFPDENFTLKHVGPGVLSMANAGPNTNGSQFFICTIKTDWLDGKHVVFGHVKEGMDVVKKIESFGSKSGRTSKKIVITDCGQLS
# Description: Binding affinity to cyclophilin D (unknown origin)
# [3] = target: Peptidyl-prolyl cis-trans isomerase A (Homo sapiens, UniProt P62937)
# Sequence of Peptidyl-prolyl cis-trans isomerase A (P62937 whole entry): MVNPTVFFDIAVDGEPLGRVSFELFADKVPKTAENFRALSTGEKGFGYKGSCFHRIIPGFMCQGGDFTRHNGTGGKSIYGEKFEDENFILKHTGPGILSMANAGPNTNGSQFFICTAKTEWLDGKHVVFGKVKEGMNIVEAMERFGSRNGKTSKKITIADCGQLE
# Description: Binding affinity to cyclophilin A (unknown origin)
# Hepatitis C virus [4] = assay: microbe, parasite or virus in culture
# Description: Antiviral activity against HCV by replicon based assay
# Homo sapiens = species: Homo sapiens; assay: Inhibition of Pgp (unknown origin) assessed as reduction in pump efflux activity
smiles,measurement,setting,value
CC(C)[C@@H]1NC(=O)C([C@H](C)O)/C=C/c2ccc3ccc(nc3c2)[C@@H](C)OC(=O)[C@@H]2CCCN(N2)C(=O)[C@H](C)NC1=O (some centres not stated),inhibition at 1 µM,Hepatitis C virus [1],99%
C/C=C/C[C@@H](C)[C@@H](O)[C@H]1C(=O)N[C@@H](CC)C(=O)N(C)[C@@H](SCCCN2CCOCC2)C(=O)N(C)[C@@H](CC(C)C)C(=O)N[C@@H](C(C)C)C(=O)N(C)[C@@H](CC(C)C)C(=O)N[C@@H](C)C(=O)N[C@H](C)C(=O)N(C)[C@@H](CC(C)C)C(=O)N(C)[C@@H](CC(C)C)C(=O)N(C)[C@@H](C(C)C)C(=O)N1C,EC50,Lymphocyte,3000 nM
C/C=C/C[C@@H](C)[C@@H](O)[C@H]1C(=O)N[C@@H](CC)C(=O)N(C)[C@@H](C)C(=O)N(C)[C@@H](CC(C)C)C(=O)N(CC=C(C)C)[C@@H](C(C)C)C(=O)N(C)[C@@H](CC(C)C)C(=O)N[C@@H](C)C(=O)N[C@H](C)C(=O)N(C)[C@@H](CC(C)C)C(=O)N(C)[C@@H](CC(C)C)C(=O)N(C)[C@@H](C(C)C)C(=O)N1C,Kd,[2],< 60 nM
same,Kd,[3],< 60 nM
same,EC50,Hepatitis C virus [4],< 200 nM
C/C=C/C[C@@H](C)[C@@H](O)[C@H]1C(=O)N[C@@H](CC)C(=O)N(C)[C@H](SCCN(C)C)C(=O)N(C)[C@@H](CC(C)(C)O)C(=O)N[C@@H](C(C)C)C(=O)N(C)[C@@H](CC(C)C)C(=O)N[C@@H](C)C(=O)N[C@H](C)C(=O)N(C)[C@@H](CC(C)C)C(=O)N(C)[C@@H](CC(C)C)C(=O)N(C)[C@@H](C(C)C)C(=O)N1C,INH,Homo sapiens,15 µM
CC(C)[C@@H]1OC(=O)[C@]2(/C=C/c3ccc4ccc(nc4c3)[C@@H](C)OC(=O)[C@@H]3CCCN(N3)C(=O)[C@H](C)NC1=O)CC[C@H](O)CC2,inhibition at 1 µM,Hepatitis C virus [1],99%
